Measurements taken from ChEMBL document CHEMBL6134849, “A Water-Soluble Aggregation-Induced Emission Photosensitizer with Intrinsic Antibacterial Activity as an Antiplanktonic and Antibiofilm Therapeutic Agent” (J Med Chem, 2025).
Calls of active or inactive are those of the source.

What was measured:
[1] = Induction of type-II ROS generation in PBS assessed as increase in singlet oxygen by measuring increase in SOSG fluorescence intensity at 10 uM irradiated with 660 nm 60 mW/cm2 light for 15 mins by SOSG probe based plate reader analysis; format: functional
[2] = Induction of type-I ROS generation in PBS assessed as increase in singlet oxygen by measuring increase in SOSG fluorescence intensity at 10 uM irradiated with 660 nm 60 mW/cm2 light for 15 mins by SOSG probe based plate reader analysis; format: functional
[3] = Induction of type-I ROS generation in PBS assessed as increase in hydroxyl radical by measuring increase in HPF fluorescence intensity at 10 uM irradiated with 660 nm 60 mW/cm2 light for 15 mins by HPF probe based plate reader analysis; format: functional
Lipoteichoic acid = assay: Displacement of BODIPY-TR Cadaverine from Staphylococcus aureus lipoteichoic acid (LTA) assessed as increase in fluorescence intensity at 10 uM incubated for 30 mins by fluorescence based plate reader analysis
Lipopolysaccharide (LPS) = assay: Displacement of BODIPY-TR Cadaverine from Pseudomonas aeruginosa lipopolysaccharide (LPS) assessed as increase in fluorescence intensity at 10 uM incubated for 30 mins by fluorescence based plate reader analysis
[4] = Induction of type-I ROS generation in PBS assessed as increase in nonspecific ROS by measuring increase in DHR123 fluorescence intensity at 10 uM irradiated with 660 nm 60 mW/cm2 light for 15 mins by DHR123 probe based plate reader analysis; format: functional
[5] = Induction of […] ROS generation in PBS assessed as increase in hydroxyl radical by measuring increase in HPF fluorescence intensity at 10 uM irradiated with 660 nm 60 mW/cm2 light for 15 mins by HPF probe based plate reader analysis; format: functional
[6] = Induction of type-II ROS generation in PBS assessed as increase in nonspecific ROS by measuring increase in DHR123 fluorescence intensity at 10 uM irradiated with 660 nm 60 mW/cm2 light for 15 mins by DHR123 probe based plate reader analysis; format: functional

Measured: Activity

CC[n+]1c(/C=C/c2ccc(-c3ccc(N(c4ccc(OCCC[N+](C)(C)C)cc4)c4ccc(OCCC[N+](C)(C)C)cc4)cc3)s2)sc2ccccc21
active: [1] | [2] | [3] | Lipoteichoic acid | Lipopolysaccharide (LPS) | [4] | [5] | [6]
